# US20090042991A1, “Methods of increasing natural killer cell activity for therapy” (priority 2005, published 2009)
# Values joined by “and” are separate entries in the source; they are usually repeats but may differ in a detail not shown here. Equal values may be shown once. “Also recorded” adds a separate entry of the source.
# How the values were obtained:
# [1] = Phase I trial: pharmacokinetics in plasma by LC/MS
# Description: Pharmacokinetic (PK) studies were performed during cycle 1 using liquid chromatography/mass spectrometry (LC/MS) to measure both compounds in plasma. Heat shock protein 70 (Hsp70) was measured in plasma before and after treatment.
# NK cell activity [2] = assay: NK cell cytotoxic activity of patient PBMC (K562/eGFP flow cytometry), melanoma study; assay type: in vivo, human; details: for % tumor cell lysis pre-dose: baseline before dosing
# From the text: (§1) The following procedure can be employed to assay NK cell activity in a subject. The procedure is adapted from Kantakamalakul W, Jaroenpool J, Pattanapanyasat K. A novel enhanced green fluorescent protein (EGFP)-K562 flow cytometric method for measuring natural killer (NK) cell cytotoxic activity. J Immunol Methods. 2003 Jan. 15; 272:189-197, the entire teachings of which are incorporated herein by reference.
# (§2) Materials and methods: Human erythroleukaemic cell line, K562, was obtained from American Type Culture Collection (CCL-243, American Type Culture Collection, Manassas, Va.), and cultured in RPMI-1640 medium (Cat#1875-093Gibco Invitrogen Corp, Carlsbad, Calif.) supplemented with 10% heat inactivated fetal calf serum (Gibco), 2 mM L-glutamin, 100 μg/ml streptomycin and 100 IU/ml penicillin at 37° C. with 5% CO2. K562 cells were transduced with retroviral vector which encode green fluorescent protein (eGFP). Stable cell line was selected with antibiotic, G418.
# (§3) The subject's peripheral blood mononuclear cells (PBMCs) were prepared by clinical study sites and received in BD Vacutainer Cell Preparation Tube with sodium heparin (Product Number: 362753, Becton Dickinson, Franklin Lakes, N.J.).
# (§4) Effector cells alone and target cells alone were used as controls. All tubes were incubated at 37° C. with 5% CO2 for about 3.5 hr. Ten microliters of propidium iodide (PI) at a concentration of 1 mg/mL was added t each tube including effector and target control tubes and then incubated at room temperature for 15 min.
# (§5) Cytotoxic activity was analyzed with a FACSCalibur flow cytometer (Becton Dickinson). Linear amplification of the forward and side scatter (FSC/SSC) signals, as well as logarithmic amplification of eGFP and PI emission in green and red fluorescence were obtained. Ten thousand events per sample tube with no gating for acquisition were collected for analysis. Data analysis for two-parameter dot plots for eGFP versus PI was performed using CELLQuest (Becton Dickinson Biosciences) software to enumerate live and dead target cells. Debris and dead cells were excluded by setting a threshold of forward light scatter.
# The study will continue to Stage 2 if 7 or more patients have a response of stable disease or better, or at least 2 patients have a partial response or better. A safety assessment was performed with the first 6 patients enrolled as the weekly dose schedule had not previously been studied in humans. The primary endpoint is non-progression rate (NPR) at 3 months and response rate. Pharmacodynamic parameters include pre and post-dose NK cell activity in blood and when possible, tumor biopsies.
# Best Response indicates an evaluation of the patient's tumor: SD indicates less than 20% of an increase and less than 30% of a decrease in the sum of the longest diameters as compared to baseline; and PD=at least a 20% increase in the sum of the longest diameters as compared to baseline. NK Activity indicates the change in NK activity before and after dosing.
# Sarcoma study: safety = assay type: in vivo, human; details: 213 mg/m2 Compound (1) and 80 mg/m2 paclitaxel weekly
# Description: The study is a 2 stage design, enrolling 30 patients in the first stage and adding 50 patients to total 80 if certain continuation criteria are met. Major inclusion criteria are refractory or recurrent soft tissue sarcomas other than gastrointestinal stromal tumor (GIST), with evidence of recent progression. […] For example, the compounds were administered together 3 weeks out of 4 on Days 1, 8, and 15 of a 28 day cycle as a 1 hour IV infusion. 30 Patients have been enrolled to completed accrual of Stage 1.
# [3] = tested on: non-small cell lung carcinoma; assay: Phase 1/2 study: tumor response (RECIST) with carboplatin and paclitaxel; assay type: in vivo, human; details: for Best Response / Target Lesions (percent change): one value per subject
# NK cell activity [4] = assay: NK cell cytotoxic activity of patient PBMC (K562/eGFP flow cytometry), sarcoma study; assay type: in vivo, human; details: for % tumor cell lysis post-dose / NK activity (change before and after dosing) / % tumor cell lysis pre-dose: Paclitaxel 80 + Cmpnd (1) 213 mg/M^2 weekly; for % tumor cell lysis pre-dose: baseline before dosing
# From the text: as §1, §2, §3, §4, §5
# Best Response indicates an evaluation of the patient's tumor: PR=at least a 30% decrease in the sum of the longest diameters as compared to baseline; SD indicates less than 20% of an increase and less than 30% of a decrease in the sum of the longest diameters as compared to baseline; and PD=at least a 20% increase in the sum of the longest diameters as compared to baseline. NK Activity indicates the change in NK activity before and after dosing.
# NK cell activity [5] = assay: NK cell cytotoxic activity of patient PBMC (K562/eGFP flow cytometry), lung carcinoma study; assay type: in vivo, human; details: for % tumor cell lysis post-dose / NK activity (change before and after dosing) / % tumor cell lysis pre-dose: Effector/Target 80:1; for % tumor cell lysis pre-dose: baseline before dosing
# From the text: as §1, §2, §3, §4, §5
# Dosing was IV q 3 weeks for up to 6 cycles in the absence of dose-limiting toxicity or progression. […] The phase 2 primary endpoint is time to progression, with secondary endpoints of response rate, survival, and quality of life. Study pharmacodynamic parameters include NK cell activity and Hsp70 level.
# Best Response indicates an evaluation of the patient's tumor: PR=at least a 30% decrease in the sum of the longest diameters as compared to baseline, while SD indicates less than 20% of an increase and less than 30% of a decrease in the sum of the longest diameters as compared to baseline. […] NK Activity indicates the change in NK activity before and after dosing.
# [6] = Paclitaxel 80 + Cmpnd (1) 106 mg/M^2 weekly, Effector/Target 80:1, one value per subject
# [7] = Paclitaxel 80 + Cmpnd (1) 213 mg/M^2 weekly, Effector/Target 80:1, one value per subject
# [8] = Paclitaxel 80 + Cmpnd (1) 213 mg/M^2 weekly, Effector/Target (40:1), subject 15
# [9] = Paclitaxel 175 + Cmpnd (1) 233 mg/M^2 (carboplatin AUC 6)
# [10] = Paclitaxel 200 + Cmpnd (1) 266 mg/M^2 (carboplatin AUC 6)
# [11] = Effector/Target 80:1, one value per subject
# [12] = Effector/Target (40:1), subject 30
# [13] = Paclitaxel 175 + Cmpnd (1) 233 mg/M^2 (carboplatin AUC 6), one value per subject
# [14] = Paclitaxel 200 + Cmpnd (1) 266 mg/M^2 (carboplatin AUC 6), one value per subject
structure (smiles),measurement,setting,value
CN(NC(=O)CC(=O)NN(C)C(=S)c1ccccc1)C(=S)c1ccccc1 [Compound (1)],PK linearity,"[1]; Compound (1) 44-525 mg/m2, unaffected by paclitaxel dose",linear PK
same,terminal-phase half life,"[1]; human plasma, IV over 3 hours co-administered with paclitaxel, cycle 1",56.4 ± 13.8 min
same,% tumor cell lysis post-dose,"NK cell activity [2]; Paclitaxel 80 + Cmpnd (1) 106 mg/M^2 weekly, 7 days after second dose, Effector/Target 80:1, one value per subject",7.74% and 2.43%
same,NK activity (change before and after dosing),NK cell activity [2]; [6],increase; also recorded: decrease
same,% tumor cell lysis post-dose,"NK cell activity [2]; Paclitaxel 80 + Cmpnd (1) 213 mg/M^2 weekly, 7 days after second dose, Effector/Target 80:1, one value per subject",10.77% and 19.78% and 26.52% and 8.64% and 18.77% and 5.2% and 26.31% and 7.2%
same,NK activity (change before and after dosing),NK cell activity [2]; [7],increase; also recorded: no change; also recorded: decrease
same,% tumor cell lysis post-dose,NK cell activity [2]; [8],10.01%
same,NK activity (change before and after dosing),NK cell activity [2]; [8],(increase)
same,% tumor cell lysis pre-dose,NK cell activity [2]; [6],2.32% and 6.13%
same,% tumor cell lysis pre-dose,NK cell activity [2]; [7],3.83% and 19.71% and 41.61% and 8.6% and 24.76% and 16.49% and 15.4% and 10.81%
same,% tumor cell lysis pre-dose,NK cell activity [2]; [8],3.5%
same,patients with statistically significant increase in NK cell activity pre- to post-dose,NK cell activity [2]; original patients of Table 3,four of the original patients
same,tolerability of addition of Compound (1) to weekly paclitaxel schedule,Sarcoma study: safety,well-tolerated
same,"time-to-progression (Kaplan-Meier, FIG. 2)","[3]; Compound (1) with paclitaxel and carboplatin versus platin/taxane combinations, preliminary data",superior to the platin/taxane combination alone; also recorded: superior to prior platin/taxane combinations alone
same,Best Response,[3]; [9],PR (at least a 30% decrease in the sum of the longest diameters as compared to baseline); also recorded: SD (less than 20% of an increase and less than 30% of a decrease in the sum of the longest diameters as compared to baseline)
same,Target Lesions (percent change),[3]; [9],−34% and −24% and −62% and −5.9% and −30% and −67%
same,Best Response,[3]; [10],PR (at least a 30% decrease in the sum of the longest diameters as compared to baseline)
same,Target Lesions (percent change),[3]; [10],−38% and −44%
same,patients achieving a partial response (PR),"[3]; Phase 1, eight of sixteen patients, with carboplatin and paclitaxel",50%
same,target lesion size,[3]; each patient completing the study (#1-#8),substantial decrease
same,patients with best response of at least a 30% decrease in sum of longest diameters,[3]; of the 8 patients completing the study,5 patients
same,% tumor cell lysis post-dose,"NK cell activity [4]; 7 days after second dose, Effector/Target 80:1, one value per subject",14.74% and 22.9% and 28.13% and 17.18% and 5.46% and 7.41% and 7.84% and 30.48% and 20.04% and 11.86%
same,NK activity (change before and after dosing),NK cell activity [4]; [11],decrease; also recorded: increase; also recorded: no change
same,% tumor cell lysis post-dose,NK cell activity [4]; [12],9.91%
same,NK activity (change before and after dosing),NK cell activity [4]; [12],no change
same,% tumor cell lysis pre-dose,NK cell activity [4]; [11],22.33% and 10.6% and 17.93% and 6.58% and 2.62% and 13.03% and 15.77% and 4.28% and 20.74% and 34.28%
same,% tumor cell lysis pre-dose,NK cell activity [4]; [12],9.88%
same,patients with decrease in NK cell activity pre- to post-dose,NK cell activity [4]; original patients of Table 4,four of the original patients
same,patients with statistically significant increase or no change in NK cell activity pre- to post-dose,NK cell activity [4]; original patients of Table 4,seven of the original patients
same,% tumor cell lysis post-dose,NK cell activity [5]; [13],30.8% and 7.75% and 14.61% and 16.14% and 8.76% and 10.05%
same,NK activity (change before and after dosing),NK cell activity [5]; [13],increase; also recorded: no change
same,% tumor cell lysis post-dose,NK cell activity [5]; [14],5.5% and 7.81%
same,NK activity (change before and after dosing),NK cell activity [5]; [14],decrease; also recorded: increase
same,% tumor cell lysis pre-dose,NK cell activity [5]; [13],7.79% and 0.92% and 10.7% and 9.55% and 3.12% and 7.84%
same,% tumor cell lysis pre-dose,NK cell activity [5]; [14],8.4% and 3.59%
same,NK activity (change before and after dosing),"NK cell activity [5]; dose not printed (subjects 9-11), listed as Cmpnd (1)",increase; also recorded: decrease
same,patients with increased NK cell activity,"NK cell activity [5]; evaluable samples, assayed 7 days after the second dose",Seven of the 8
same,patients with increase in NK cell activity between pre- and post-dose,"NK cell activity [5]; of the 11 original patients, paired t-test p=0.06, not significant",8 patients
